Laboratory results reported in PubChem BioAssay (NCI).
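Compound exposure: 48 hours, 5 concentrations, 96-well plates. At the GI50, growth is halved. The concentration for full growth arrest is given as TGI.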

What was measured:
Experiment in all cases: inhibition of tumour cell growth, NCI panel, 48 h
SK-OV-3 ovarian = tested on: SK-OV-3 ovarian
OVCAR-3 ovarian = tested on: OVCAR-3 ovarian
SK-MEL-2 melanoma = tested on: SK-MEL-2 melanoma
ACHN renal = tested on: ACHN renal
EKVX NSCLC = tested on: EKVX NSCLC
MDA-MB-231 breast = tested on: MDA-MB-231 breast
SR leukemia = tested on: SR leukemia
UACC-62 melanoma = tested on: UACC-62 melanoma
SK-MEL-5 melanoma = tested on: SK-MEL-5 melanoma
UACC-257 melanoma = tested on: UACC-257 melanoma

| SMILES | TGI (SK-OV-3 ovarian) [µM] | TGI (OVCAR-3 ovarian) [µM] | TGI (SK-MEL-2 melanoma) [µM] | TGI (ACHN renal) [µM] | TGI (EKVX NSCLC) [µM] | TGI (MDA-MB-231 breast) [µM] | TGI (SR leukemia) [µM] | TGI (UACC-62 melanoma) [µM] | TGI (SK-MEL-5 melanoma) [µM] | TGI (UACC-257 melanoma) [µM] | GI50 (SK-OV-3 ovarian) [µM] | GI50 (OVCAR-3 ovarian) [µM] | GI50 (SK-MEL-2 melanoma) [µM] | GI50 (ACHN renal) [µM] | GI50 (EKVX NSCLC) [µM] | GI50 (MDA-MB-231 breast) [µM] | GI50 (UACC-62 melanoma) [µM] | GI50 (SK-MEL-5 melanoma) [µM] | GI50 (UACC-257 melanoma) [µM] |
| --- | --- | --- | --- | --- | --- | --- | --- | --- | --- | --- | --- | --- | --- | --- | --- | --- | --- | --- | --- |
| CCc1n[nH]c(=O)n1N1C(=O)C2CC=CCC2C1=O (centres undefined) | > 100 | > 100 | > 100 | > 100 | > 100 | > 100 | > 100 | > 100 | > 100 | > 100 | – | – | – | – | – | – | – | – | – |
| COC(OC)c1cccc2c1C1(O)CCC3(CC21)OCCCCO3 (centres undefined) | > 100 | > 100 | > 100 | > 100 | – | – | > 100 | > 100 | > 100 | > 100 | – | – | – | – | – | – | – | – | – |
| O=C(CN1CCN(C(=O)OCc2ccccc2)CCN(CC(=O)N2CCCCC2)CCN(C(=O)OCc2ccccc2)CC1)N1CCCCC1 | > 52.7 | 22.8 | 40.2 | > 54 | > 56.7 | 33.7 | 11.8 | 38.8 | 19.2 | 9.75 | – | – | – | – | – | – | – | – | – |
| CC(C)OP(=O)(CN(C)/C(F)=N\C(F)(F)F)OC(C)C | > 100 | > 100 | > 100 | > 100 | > 100 | > 100 | – | > 100 | > 100 | > 100 | – | – | – | – | – | – | – | – | – |
| c1ccc(C2SCC3=Nc4ccccc4CN32)cc1 (centres undefined) | > 100 | 22.5 | – | – | – | > 100 | > 100 | > 100 | 32.2 | > 100 | – | – | – | – | – | – | – | – | – |
| COP(C)(=O)/C(Cc1ccccc1)=N\O (centres undefined) | > 100 | > 100 | > 100 | > 100 | – | > 100 | > 100 | – | > 100 | > 100 | – | – | – | – | – | – | – | – | – |
| O=C1OCC(C#Cc2ccccc2)=C1Cl | > 100 | 10.8 | 40.7 | 6.56 | 6.17 | 6.39 | – | 18.8 | 23.5 | 40.2 | 37.7 | 1.9 | 8.61 | 2.49 | 1.91 | 1.19 | 6.21 | 10 | 4.34 |
| CCOc1ccc2c(c1)/C(=C(\C(Cl)=C(Cl)Cl)[N+](=O)[O-])N2 | > 100 | > 100 | > 100 | > 100 | > 100 | > 100 | – | > 100 | – | > 100 | – | – | – | – | – | – | – | – | – |
| O=C(N/N=C1\CCc2ccccc2C1)N/N=C1\CCc2ccccc2C1 | – | > 10 | > 10 | > 10 | > 10 | > 10 | > 10 | – | – | > 10 | – | – | – | – | – | – | – | – | – |
| CCOc1ccccc1/C=C1\NC(=O)N(/C=C2\C(=O)Oc3ccccc3C2=O)C1=O | > 100 | > 100 | > 100 | > 100 | > 100 | > 100 | – | > 100 | 57.9 | > 100 | – | – | – | – | – | – | – | – | – |
| CC(NS(C)(=O)=O)c1ccccc1 (centres undefined) | – | > 100 | > 100 | – | – | > 100 | > 100 | > 100 | > 100 | > 100 | – | – | – | – | – | – | – | – | – |
| c1ccc(N=C2SC(=NNc3ccccc3)SC2=Nc2ccccc2)cc1 | > 100 | – | > 100 | > 100 | > 100 | > 100 | > 100 | > 100 | > 100 | > 100 | – | – | – | – | – | – | – | – | – |
| COc1ccc(Cc2nc3cc(C(F)(F)F)ccc3n2CCCN(C)C)cc1 | 41.9 | 46.1 | 36.1 | 79.9 | 65.4 | 64.6 | – | 32.1 | 30.1 | 33.2 | – | – | – | – | – | – | – | – | – |
| NC(=O)CCC(NCc1c2ccccc2[n+]([O-])c2ccccc12)C(=O)O (centres undefined) | > 100 | > 100 | > 100 | > 100 | > 100 | – | – | > 100 | > 100 | > 100 | – | – | – | – | – | – | – | – | – |
| C/C(=N\Nc1ccc([N+](=O)[O-])cc1[N+](=O)[O-])c1ccc2ccccc2n1 | > 100 | – | > 100 | > 100 | > 100 | > 100 | > 100 | > 100 | > 100 | > 100 | – | – | – | – | – | – | – | – | – |
| CCP(=O)(CC)C(Cl)(Cl)C(O)C(C)(C)C (centres undefined) | > 100 | > 100 | > 100 | > 100 | – | > 100 | > 100 | – | > 100 | > 100 | – | – | – | – | – | – | – | – | – |
| O=C1c2ccccc2CC12Cc1cc3c(cc1C2=O)CCC3 (centres undefined) | > 100 | > 100 | > 100 | > 100 | > 100 | > 100 | > 100 | – | > 100 | > 100 | – | – | – | – | – | – | – | – | – |
| C=C=C(C)[Si](C)(C)C | > 100 | > 100 | > 100 | > 100 | – | > 100 | > 100 | > 100 | > 100 | > 100 | – | – | – | – | – | – | – | – | – |
| Nc1nc(Cl)cc(NCC2(CO)CCC(Cc3ccccc3)C2)n1 (centres undefined) | > 90.6 | > 100 | > 75.7 | > 100 | > 100 | > 100 | – | 40.1 | 15.6 | > 50.7 | – | – | – | – | – | – | – | – | – |
| Cc1ccc(C(=O)C(C)N)cc1 (centres undefined) | > 100 | > 100 | > 100 | > 100 | > 100 | – | > 100 | > 100 | > 100 | > 100 | – | – | – | – | – | – | – | – | – |
| CC(=O)OC1CC2CCC1(C)C2(C)C (centres undefined) | > 100 | > 100 | > 100 | > 100 | – | > 100 | – | > 100 | – | > 100 | – | – | – | – | – | – | – | – | – |
| O=P(O)(O)C(CSc1ccccc1)P(=O)(O)O | > 100 | > 69.2 | > 100 | – | > 100 | – | – | > 100 | > 100 | > 100 | – | – | – | – | – | – | – | – | – |
| Cc1cccc(Nc2cn(COCc3ccccc3)c(=O)[nH]c2=O)c1 | – | > 100 | – | > 100 | > 100 | – | > 100 | > 100 | > 100 | > 100 | – | – | – | – | – | – | – | – | – |
| CC(=O)[O-].CC(=O)[O-].O=C(N/N=C/c1cc(Cl)cc(Cl)c1[OH2+])c1ccncc1.[Co+2] | > 100 | > 100 | – | > 100 | > 100 | – | > 100 | > 100 | > 100 | > 100 | – | – | – | – | – | – | – | – | – |
